{"source": "patent US20210186930A1", "about": "“Methods of Treating Renal Disease Associated With Chronic Kidney Disease Such as Alport Syndrome” (UNIVERSITY OF MIAMI, priority 2018, published 2021)", "key": {"Col4a3−/− mice": {"test_system": "Col4a3−/− mice", "experiment": "Mesangial expansion (PAS) and renal fibrosis (Picrosirius Red) in Col4a3-/- mice (Example 3, FIG. 6)", "assay_type": "in vivo, mouse", "conditions": "treated vs untreated Col4a3−/− mice; ezetimibe 5 mg/kg, ramipril 10 mg/kg, 4 weeks", "experimental": "Assessment of mesangial expansion: Periodic acid-Schiff (PAS) staining of 4 μm-thick tissue sections was performed using a standard protocol. Twenty glomeruli per section were analyzed for mesangial expansion by semi quantitative analysis (scale 0-4) performed by two blinded independent investigators.\n(§1) Picrosirius red staining: Paraffin-embedded sections (4 μm thick) were deparaffinized with xylene and a graded alcohol series. Sections were rinsed for 5 min in distilled water, stained for 1 hour with picrosirius red in saturated aqueous picric acid, examined under a light microscope and photomicrographs were taken. Histological images were visualized using a light microscope (Olympus BX 41, Tokyo, Japan) at 40× magnification and analyzed using Image J software.\nThe following experiment was performed to investigate which treatment, ezetimibe (EZ), ramipril (Ramp) or the combination of both drugs (EZ+Ramp), would best preserve renal function in Col4a3 knockout mice, all drugs were administered to 4-week-old Col4a3−/− mice for 4 weeks as follows: ezetimibe (Ez) was orally administered at a concentration of 5 mg/kg BW, ramipril was added to the drinking water at a concentration that would lead to a daily ramipril uptake of 10 mg/kg BW. All mice were sacrificed at 8 weeks of age. The following four groups of mice were analyzed: Col4a3^+/+, Col4a3^−/−+Ez, Col4a3^−/−+Ramp and Col4a3^−/−+Ez+Ramp.\nPAS staining was performed to detect and quantify mesangial expansion, Picrossirius Red staining to detect and quantify renal fibrosis in treated compared to untreated Col4a3^−/− mice. […] Representative images for PAS staining are shown in FIG. 6A and of Picrosirius Red staining to detect fibrosis in […]. Bar graph quantifications for both are shown in FIGS. 6C and 6D, respectively."}, "Col4a3 knockout mice [1]": {"test_system": "Col4a3 knockout mice", "experiment": "Renal function and body weight in Col4a3 knockout mice treated with ezetimibe (FIG. 3)", "assay_type": "in vivo, mouse", "experimental": "(§2) Mouse models: Mice in which exon 5 of a3 chain of collagen type IV is deleted (Col4a3 KO) were obtained from the Jackson Laboratory (#002908, 129-Col4a3tm1Dec/J). Col4a3 heterozygous littermates were bred to generate Col4a3 KO mice. Four groups of mice with n=3-10 per group were studied. The four groups consisted of: 1) wildtype controls+vehicle, 2) wildtype controls+ezetimibe, 3) Col4a3 KO+vehicle, 4) Col4a3 KO+ezetimibe. ezetimibe was administered by oral gavage daily starting at 4 weeks of age at a concentration of 5 mg/kg body weight. […] Mice were sacrificed at 8 weeks of age when progression to end-stage renal failure had occurred.\nAlbumin/creatinine ratio: All albuminuria values are expressed as μg albumin/mg creatinine. Albumin/creatinine determined by ELISA (Bethyl Laboratories) for albumin detection and a biochemical assay based on the Jaffe method for creatinine detection (Stanbio) as previously described.\n(§3) Serology: Immediately prior to sacrifice, a blood sample was collected for the determination of BUN and lipid panel analysis in the comparative laboratory core facility of the University of Miami. Serum creatinine was determined by tandem mass spectrometry (UAB-UCSD O'Brien Core Center, University of Alabama)."}, "[2]": {"conditions": "ambient temperature; cited from earlier work"}, "Col4a3 knockout mice [3]": {"test_system": "Col4a3 knockout mice", "experiment": "Fibrosis, lipid droplets, serum and kidney cortex lipids, CD36 in Col4a3 knockout mice treated with ezetimibe (FIG. 4)", "assay_type": "in vivo, mouse", "experimental": "Determination of cholesterol content in kidney cortex: Tissue from kidney cortexes was homogenized in hypotonic buffer (10 mM HEPES pH7.0, 15 mM KCl, 1 mM MgCl2, 10 mM phosphatase inhibitors). Lipids from 100 μl of the homogenate were extracted with 1 ml of hexane:isopropanol (3:2, v/v), dried and reconstituted in 100 μl of isopropanol-NP40 (9:1, v/v). Tissue fractions not soluble in the organic solvent, were further dried, reconstituted in 8 M urea, and assayed for protein concentration using Pierce BCA protein assay kit (ThermoFisher Scientific, MA, USA). Total cholesterol from lipid extracts was determined by the enzymatic method as previously described (Robinet, P., Wang, Z., Hazen, S. L. & Smith, J. D. A simple and sensitive enzymatic method for cholesterol quantification in macrophages and foam cells. Journal of lipid research 51, 3364-3369, 2010). Briefly, endogenous peroxides present were eliminated by incubating samples and standards with catalase (Sigma-Aldrich, MO, USA), 45 U/ml final concentration, for 15 min at 37° C. Then, 50 μl of samples and standards were mixed with 50 μl of reagent A (2 U/ml cholesterol oxidase (Sigma-Aldrich, MO, USA), 0.6 U/ml cholesterol esterase (MP Biomedicals), 2 U/ml HRP (Sigma), 100 μM Amplex Red (ThermoFisher Scientific, MA, USA) in black 96-well plates. The plates were incubated at 37° C. for 30 min and fluorescence was read at 530 nm (Ex) and 580 nm (Em) in a plate reader (SpectraMax M5, Molecular Devices, CA, USA). Cholesteryl esters (CE) quantification was based on the method described from Toshimi M, et al. Briefly, 25 μl of samples was mixed with 150 μl of free cholesterol decomposition reagent (45 U/ml catalase, 1 U/ml cholesterol oxidase) and incubated 2-4 h at 37° C., and then the final volume was brought up to 250 μl prior to determining free and total cholesterol remaining. Total cholesterol remaining was determined by mixing 50 μl of end product reaction with 50 μl of reagent A, as described above. Free cholesterol remaining was determined similarly, but without including cholesterol esterase in the reagent. CE was calculated by the formula CE=(TC−FC)×DF, where TC is the total cholesterol remaining, FC the free cholesterol remaining and DF the dilution factor, in this case, 10.\nLipid content: Oil Red 0 staining was performed on frozen tissue sections and triglyceride content was determined on snap frozen kidney tissue as described above.\nas §2, §3, §1"}, "[4]": {"conditions": "ezetimibe 5 mg/kg oral gavage daily, sacrifice at 8 weeks"}, "[5]": {"conditions": "Col4a3 knockout mice, ezetimibe treated vs untreated"}}, "note": "“Also recorded” adds a separate entry of the source."}
{"compound": "O=C1[C@H](CC[C@H](O)c2ccc(F)cc2)[C@@H](c2ccc(O)cc2)N1c1ccc(F)cc1", "note": "[ezetimibe]", "values": [{"measurement": "mesangial expansion (PAS staining, score)", "setting": "Col4a3−/− mice", "result": "significant reduction; also recorded: significantly reduced mesangial expansion"}, {"measurement": "renal fibrosis (Picrosirius Red staining)", "setting": "Col4a3−/− mice", "result": "significant reduction; also recorded: significantly reduced"}, {"measurement": "body weight", "setting": "Col4a3 knockout mice [1]; ezetimibe 5 mg/kg oral gavage daily", "result": "prevents body weight loss"}, {"measurement": "albumin/creatinine ratio", "setting": "Col4a3 knockout mice [1]; ezetimibe 5 mg/kg oral gavage daily from 4 weeks of age, vs untreated Col4a3 knockout mice", "result": "significant reduction in the albumin/creatinine ratio"}, {"measurement": "serum BUN levels", "setting": "Col4a3 knockout mice [1]; [4]", "result": "prevents increases in serum BUN levels"}, {"measurement": "serum creatinine levels", "setting": "Col4a3 knockout mice [1]; [4]", "result": "significantly reduces serum creatinine levels"}, {"measurement": "stability", "setting": "[2]", "result": "stable"}, {"measurement": "total cholesterol levels in kidney cortexes", "setting": "Col4a3 knockout mice [3]; Col4a3 knockout mice, ezetimibe treated or untreated", "result": "No change in total cholesterol levels"}, {"measurement": "fibrosis (PicroSirius Red staining)", "setting": "Col4a3 knockout mice [3]; [5]", "result": "significant reduction of fibrosis"}, {"measurement": "glomerular lipid droplets (Oil Red O staining)", "setting": "Col4a3 knockout mice [3]; [5]", "result": "significant reduction of glomerular lipid droplets"}, {"measurement": "serum triglyceride levels", "setting": "Col4a3 knockout mice [3]; [5]", "result": "significantly decreased"}, {"measurement": "total serum cholesterol levels", "setting": "Col4a3 knockout mice [3]; [5]", "result": "significantly decreased"}, {"measurement": "triglyceride content in kidney cortexes", "setting": "Col4a3 knockout mice [3]; [5]", "result": "significantly reduces triglyceride content"}, {"measurement": "CD36 expression", "setting": "Col4a3 knockout mice [3]; ezetimibe treated Col4a3 knockout mice (untreated knockout also increased)", "result": "significantly increased"}, {"measurement": "ratio of esterified to total cholesterol in kidney cortexes", "setting": "Col4a3 knockout mice [3]; ezetimibe treated Col4a3 knockout mice compared to controls (untreated knockout also increased)", "result": "significantly increased"}]}
